The values below come from patent publication US20250098679A1, “HERBICIDAL PYRIDONE DERIVATIVES” (SYNGENTA CROP PROTECTION AG, priority 2021, published 2025).

What all share (format): in vivo
For test [1], the system named is Amaranthus palmeri (AMAPA). Briefly: Post-emergence Test, Amaranthus palmeri (AMAPA). Set-up: key: 5=81-100%, 4=61-80%, 3=41-60%, 2=21-40%, 1=0-20% damage. As to conditions: evaluated after 13 days. The gist of the method:
(§1)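 Percent plant damage was rated 13 days post-application on a 1–5 scale (1=0-20%, 5=81-100%). Application used an aqueous acetone (50:50)/0.5% Tween 20 spray, normally 1000 g/ha, with controlled glasshouse conditions (24/16 °C, 14 h light, 65% humidity).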

The test system of a further test is Setaria faberi (SETFA). In words: Post-emergence Test, Setaria faberi (SETFA). Set-up: key to percentage damage caused to the plant, SETFA (five-point scale): 5=81-100%, 4=61-80%, 3=41-60%, 2=21-40%, 1=0-20% damage. As to conditions: 1000 g/ha, evaluated after 13 days. An outline of the steps:
as §1

The test system of test [2] is Echinochloa crus-galli (ECHCG). Briefly: Post-emergence Test, Echinochloa crus-galli (ECHCG). The following applies: evaluated after 13 days; for Post-emergence Test ECHCG, percentage damage caused to the plant (five-point scale): 250 g/Ha (*). Set-up: key to percentage damage caused to the plant, ECHCG (five-point scale): 5=81-100%, 4=61-80%, 3=41-60%, 2=21-40%, 1=0-20% damage. The gist of the method: as §1

The subject of test [3] is Amaranthus retoflexus (AMARE). In words: Post-emergence Test, Amaranthus retoflexus (AMARE). The following applies: evaluated after 13 days. Further details: key to percentage damage caused to the plant, AMARE (five-point scale): 5=81-100%, 4=61-80%, 3=41-60%, 2=21-40%, 1=0-20% damage. An outline of the steps: as §1
Test [4] has as its system Ipomoea hederacea (IPOHE). Briefly: Post-emergence Test, Ipomoea hederacea (IPOHE). Further details: key to percentage damage caused to the plant, IPOHE (five-point scale): 5=81-100%, 4=61-80%, 3=41-60%, 2=21-40%, 1=0-20% damage. As to conditions: evaluated after 13 days. The gist of the method: as §1
Test [5] has as its system Zea mays (ZEAMX). In words: Post-emergence Test, Zea mays (ZEAMX). The following applies: evaluated after 13 days. Set-up: key to percentage damage caused to the plant, ZEAMX (five-point scale): 5=81-100%, 4=61-80%, 3=41-60%, 2=21-40%, 1=0-20% damage. An outline of the steps: as §1
For test [6], the system named is Zea mays (ZEAMX). Briefly: Pre-emergence Test, Zea mays (ZEAMX). As to conditions: 250 g/Ha (*), evaluated after 13 days.
Test [7] relates to Ipomoea hederacea (IPOHE). Briefly: Pre-emergence Test, Ipomoea hederacea (IPOHE). The following applies: 250 g/Ha (*), evaluated after 13 days.
The test system of test [8] is Amaranthus palmeri (AMAPA). Briefly: Pre-emergence Test, Amaranthus palmeri (AMAPA). The following applies: 250 g/Ha (*), evaluated after 13 days.
In test [9] the test system is Echinochloa crus-galli (ECHCG). Briefly: Pre-emergence Test, Echinochloa crus-galli (ECHCG). The following applies: 250 g/Ha (*), evaluated after 13 days.
The test system of test [10] is Amaranthus retoflexus (AMARE). In words: Pre-emergence Test, Amaranthus retoflexus (AMARE). The following applies: 250 g/Ha (*), evaluated after 13 days.

`CCn1c(Cn2nc(C(F)(F)F)cc2C2CC2)cc(=O)c(C(=O)O)c1-c1ccc(Cl)c(Cl)c1` [Compound 184, 6-[[5-cyclopropyl-3-(trifluoromethyl)pyrazol-1-yl]methyl]-2-(3,4-dichlorophenyl)-1-ethyl-4-oxo-pyridine-3-carboxylic acid]: the “percentage damage caused to the plant, AMAPA (five-point scale)” value is listed as 1 (1=0-20%) in [1] (250 g/Ha) and 3 (3=41-60%) in test [1] (1000 g/ha). The “percentage damage caused to the plant, SETFA (five-point scale)” value with Setaria faberi (SETFA) is 4 (4=61-80%). Further, the “percentage damage caused to the plant, ECHCG (five-point scale)” value in test [2] (250 g/Ha) is listed as 3 (3=41-60%). The “percentage damage caused to the plant, AMARE (five-point scale)” value is reported as 1 (1=0-20%) in test [3] (250 g/Ha) and 3 (3=41-60%) in test [3] (1000 g/ha). Besides, the “percentage damage caused to the plant, IPOHE (five-point scale)” value is listed as 1 (1=0-20%) in test [4] (250 g/Ha) and 4 (4=61-80%) in [4] (1000 g/ha). Moreover, the “percentage damage caused to the plant, ZEAMX (five-point scale)” value in the test on Zea mays (ZEAMX) [5] (250 g/Ha) is 1 (1=0-20%); in the test with Zea mays (ZEAMX) [5] (1000 g/ha), 3 (3=41-60%).

Regarding `CCOCc1ccnn1Cc1cc(=O)c(C(=O)O)c(-c2ccc(Cl)c(Cl)c2)n1CC` [Compound 188, 2-(3,4-dichlorophenyl)-6-[[5-(ethoxymethyl)pyrazol-1-yl]methyl]-1-ethyl-4-oxo-pyridine-3-carboxylic acid], the “percentage damage caused to the plant, AMAPA (five-point scale)” value in test [1] (1000 g/ha) is reported as 1 (1=0-20%). Moreover, in the test with Setaria faberi (SETFA), the “percentage damage caused to the plant, SETFA (five-point scale)” value is 0. Besides, the “percentage damage caused to the plant, ECHCG (five-point scale)” value in [2] (1000 g/ha) is recorded as 0. Moreover, the “percentage damage caused to the plant, AMARE (five-point scale)” value in test [3] (1000 g/ha) is listed as 0. In test [4] (1000 g/ha), the “percentage damage caused to the plant, IPOHE (five-point scale)” value is recorded as 1 (1=0-20%). Moreover, the “percentage damage caused to the plant, ZEAMX (five-point scale)” value with Zea mays (ZEAMX) [5] (1000 g/ha) was determined as 0.

With `CCn1c(Cn2ncc(C(F)(F)F)n2)cc(=O)c(C(=O)O)c1-c1ccc(Cl)c(Cl)c1` [Compound 189, 2-(3,4-dichlorophenyl)-1-ethyl-4-oxo-6-[[4-(trifluoromethyl)triazol-2-yl]methyl]pyridine-3-carboxylic acid], the “percentage damage caused to the plant, AMAPA (five-point scale)” value in [1] (250 g/Ha) is 5 (5=81-100%). In addition, the “Pre-emergence Test ZEAMX, percentage damage caused to the plant (five-point scale)” value in the test on Zea mays (ZEAMX) [6] is 4 (4=61-80%). Further, the “percentage damage caused to the plant, ECHCG (five-point scale)” value in test [2] (250 g/Ha) was 4 (4=61-80%). Further, the “Pre-emergence Test IPOHE, percentage damage caused to the plant (five-point scale)” value in test [7] was 3 (3=41-60%). For the same compound, the “Pre-emergence Test AMAPA, percentage damage caused to the plant (five-point scale)” value in test [8] is 2 (2=21-40%). Moreover, in test [9], the “Pre-emergence Test ECHCG, percentage damage caused to the plant (five-point scale)” value is listed as 5 (5=81-100%). The “percentage damage caused to the plant, AMARE (five-point scale)” value in test [3] (250 g/Ha) was 4 (4=61-80%). The “Pre-emergence Test AMARE, percentage damage caused to the plant (five-point scale)” value in test [10] was 2 (2=21-40%). In addition, the “percentage damage caused to the plant, IPOHE (five-point scale)” value in test [4] (250 g/Ha) is listed as 4 (4=61-80%). Besides, the “percentage damage caused to the plant, ZEAMX (five-point scale)” value with Zea mays (ZEAMX) [5] (250 g/Ha) was 4 (4=61-80%).

`CCC(=O)Nc1ccn(Cc2cc(=O)c(C(=O)O)c(-c3ccc(Cl)c(Cl)c3)n2CC)n1` [Compound 192, 2-(3,4-dichlorophenyl)-1-ethyl-4-oxo-6-[[3-(propanoylamino)pyrazol-1-yl]methyl]pyridine-3-carboxylic acid]: the “percentage damage caused to the plant, AMAPA (five-point scale)” value in test [1] (1000 g/ha) was 1 (1=0-20%). Moreover, the “percentage damage caused to the plant, SETFA (five-point scale)” value in the test on Setaria faberi (SETFA) turned out to be 0. Moreover, the “percentage damage caused to the plant, ECHCG (five-point scale)” value in test [2] (1000 g/ha) is given as 0. Also, the “percentage damage caused to the plant, AMARE (five-point scale)” value in [3] (1000 g/ha) is listed as 1 (1=0-20%). The “percentage damage caused to the plant, IPOHE (five-point scale)” value in [4] (1000 g/ha) is on record as 0. Also, the “percentage damage caused to the plant, ZEAMX (five-point scale)” value with Zea mays (ZEAMX) [5] (1000 g/ha) is on record as 0.

For `CCn1c(Cn2ccc(-c3ccncc3)n2)cc(=O)c(C(=O)O)c1-c1ccc(Cl)c(Cl)c1` [Compound 195, 2-(3,4-dichlorophenyl)-1-ethyl-4-oxo-6-[[3-(4-pyridyl)pyrazol-1-yl]methyl]pyridine-3-carboxylic acid], the “Post-emergence Test AMAPA, percentage damage caused to the plant (five-point scale)” value in test [1] (250 g/Ha (*)) and in test [1] (1000 g/ha) was 0 in each case. Moreover, in the test on Setaria faberi (SETFA), the “Post-emergence Test SETFA, percentage damage caused to the plant (five-point scale)” value is 2 (2=21-40%). In addition, the “Post-emergence Test ECHCG, percentage damage caused to the plant (five-point scale)” value in test [2] was 1 (1=0-20%). Also, the “Post-emergence Test AMARE, percentage damage caused to the plant (five-point scale)” value is reported as 0 in [3] (250 g/Ha (*)) and 1 (1=0-20%) in [3] (1000 g/ha). In addition, the “Post-emergence Test IPOHE, percentage damage caused to the plant (five-point scale)” value in test [4] (250 g/Ha (*)) is on record as 0; in [4] (1000 g/ha), 1 (1=0-20%). Besides, the “Post-emergence Test ZEAMX, percentage damage caused to the plant (five-point scale)” value with Zea mays (ZEAMX) [5] (250 g/Ha (*)) is 0; with Zea mays (ZEAMX) [5] (1000 g/ha) it was 1 (1=0-20%).

With `CCn1c(Cn2ccc(-c3ccc(C)cc3)n2)cc(=O)c(C(=O)O)c1-c1ccc(Cl)c(Cl)c1` [Compound 196, 2-(3,4-dichlorophenyl)-1-ethyl-4-oxo-6-[[3-(p-tolyl)pyrazol-1-yl]methyl]pyridine-3-carboxylic acid], the “Post-emergence Test AMAPA, percentage damage caused to the plant (five-point scale)” value in test [1] (250 g/Ha (*)) and in [1] (1000 g/ha) was 0 throughout. In the test with Setaria faberi (SETFA), the “Post-emergence Test SETFA, percentage damage caused to the plant (five-point scale)” value is reported as 0. In addition, in test [2], the “Post-emergence Test ECHCG, percentage damage caused to the plant (five-point scale)” value is 1 (1=0-20%). Further, the “Post-emergence Test AMARE, percentage damage caused to the plant (five-point scale)” value in test [3] (250 g/Ha (*)) and in [3] (1000 g/ha) was 0 throughout. The “Post-emergence Test IPOHE, percentage damage caused to the plant (five-point scale)” value in test [4] (250 g/Ha (*)) and in test [4] (1000 g/ha) was 0 in each case. Further, the entries for the “Post-emergence Test ZEAMX, percentage damage caused to the plant (five-point scale)” value in the test with Zea mays (ZEAMX) [5] (250 g/Ha (*)) and with Zea mays (ZEAMX) [5] (1000 g/ha) were 0 and 1 (1=0-20%), respectively.

Turning to `CCn1c(Cn2ccc(-c3ccc(Cl)cc3)n2)cc(=O)c(C(=O)O)c1-c1ccc(Cl)c(Cl)c1` [Compound 199, 6-[[3-(4-chlorophenyl)pyrazol-1-yl]methyl]-2-(3,4-dichlorophenyl)-1-ethyl-4-oxo-pyridine-3-carboxylic acid], the “Post-emergence Test AMAPA, percentage damage caused to the plant (five-point scale)” value in test [1] (250 g/Ha (*)) and in test [1] (1000 g/ha) was 0 in each case. Also, the “Post-emergence Test SETFA, percentage damage caused to the plant (five-point scale)” value in the test on Setaria faberi (SETFA) was found to be 0. Further, the “Post-emergence Test ECHCG, percentage damage caused to the plant (five-point scale)” value in [2] is 1 (1=0-20%). Further, the “Post-emergence Test AMARE, percentage damage caused to the plant (five-point scale)” value in [3] (250 g/Ha (*)) and in test [3] (1000 g/ha) was 0 each time. The “Post-emergence Test IPOHE, percentage damage caused to the plant (five-point scale)” value in test [4] (250 g/Ha (*)) was 0; in [4] (1000 g/ha) it was 2 (2=21-40%). Besides, the “Post-emergence Test ZEAMX, percentage damage caused to the plant (five-point scale)” value with Zea mays (ZEAMX) [5] (250 g/Ha (*)) and in the test on Zea mays (ZEAMX) [5] (1000 g/ha) was 0 in each case.

With `CCn1c(Cn2ccc(-c3ccco3)n2)cc(=O)c(C(=O)O)c1-c1ccc(Cl)c(Cl)c1` [Compound 200], the “Post-emergence Test AMAPA, percentage damage caused to the plant (five-point scale)” value in [1] (250 g/Ha (*)) and in [1] (1000 g/ha) was 0 in each case. Also, the “Post-emergence Test SETFA, percentage damage caused to the plant (five-point scale)” value with Setaria faberi (SETFA) is recorded as 1 (1=0-20%). Also, the “Post-emergence Test ECHCG, percentage damage caused to the plant (five-point scale)” value in [2] is 1 (1=0-20%). Also, the “Post-emergence Test AMARE, percentage damage caused to the plant (five-point scale)” value in test [3] (250 g/Ha (*)) and in test [3] (1000 g/ha) was 0 in each case. Further, the “Post-emergence Test IPOHE, percentage damage caused to the plant (five-point scale)” value in [4] (250 g/Ha (*)) was 0; in test [4] (1000 g/ha) it was 1 (1=0-20%). The “Post-emergence Test ZEAMX, percentage damage caused to the plant (five-point scale)” value in the test with Zea mays (ZEAMX) [5] (250 g/Ha (*)) and in the test with Zea mays (ZEAMX) [5] (1000 g/ha) was 1 (1=0-20%) throughout.
